Source: patent publication US20230085307A1, “PYRIDAZINONE COMPOUND AND HERBICIDE” (NISSAN CHEMICAL CORPORATION, priority 2019, published 2023)

Columns and labels:
southern crabgrass [1] = assay: Test Example 4: herbicidal effect by soil treatment (Table 19, symbol F); assay type: in vivo, southern crabgrass (Digitaria ciliaris); details: amount of applied herbicide 320 g/ha
Summary of the method: (§1)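 Seeds were sown in sterilized diluvial soil and covered with about 1.5 cm of soil. An emulsion formulation diluted with water to a predetermined herbicide amount was sprayed evenly onto the soil surface. Plants grew in a greenhouse at 25° C. to 30° C., and the effect was scored three weeks after application using criteria from an earlier test.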

lambsquarters [2] = assay: Test Example 4: herbicidal effect by soil treatment (Table 19, symbol O); assay type: in vivo, lambsquarters (Chenopodium album); details: amount of applied herbicide 320 g/ha
Summary of the method: as §1

velvetleaf [3] = assay: Test Example 4: herbicidal effect by soil treatment (Table 19, symbol M); assay type: in vivo, velvetleaf (Abutilon theophrasti); details: amount of applied herbicide 320 g/ha
Summary of the method: as §1

green foxtail [4] = assay: Test Example 4: herbicidal effect by soil treatment (Table 19, symbol G); assay type: in vivo, green foxtail (Setaria viridis); details: amount of applied herbicide 320 g/ha
Summary of the method: as §1

windgrass [5] = assay: Test Example 4: herbicidal effect by soil treatment (Table 19, symbol L); assay type: in vivo, windgrass (Apera spica-venti); details: amount of applied herbicide 320 g/ha
Summary of the method: as §1

Italian ryegrass [6] = assay: Test Example 4: herbicidal effect by soil treatment (Table 19, symbol K); assay type: in vivo, Italian ryegrass (Lolium multiflorum); details: amount of applied herbicide 320 g/ha
Summary of the method: as §1

false cleavers = assay: Test Example 4: herbicidal effect by soil treatment (Table 19, symbol Q); assay type: in vivo, false cleavers (Galium spurium); details: amount of applied herbicide 320 g/ha
Summary of the method: as §1

persian speedwell [7] = assay: Test Example 4: herbicidal effect by soil treatment (Table 19, symbol R); assay type: in vivo, Persian speedwell (Veronica persica); details: amount of applied herbicide 320 g/ha
Summary of the method: as §1

redroot pigweed [8] = assay: Test Example 4: herbicidal effect by soil treatment (Table 19, symbol N); assay type: in vivo, redroot pigweed (Amaranthus retroflexus); details: amount of applied herbicide 320 g/ha
Summary of the method: as §1

barnyard grass [9] = assay: Test Example 4: herbicidal effect by soil treatment (Table 19, symbol H); assay type: in vivo, barnyard grass (Echinochloa crus-galli); details: amount of applied herbicide 320 g/ha
Summary of the method: as §1

blackgrass [10] = assay: Test Example 4: herbicidal effect by soil treatment (Table 19, symbol J); assay type: in vivo, blackgrass (Alopecurus myosuroides); details: amount of applied herbicide 320 g/ha
Summary of the method: as §1

wild oat [11] = assay: Test Example 4: herbicidal effect by soil treatment (Table 19, symbol I); assay type: in vivo, wild oat (Avena fatua); details: amount of applied herbicide 320 g/ha
Summary of the method: as §1

chickweed [12] = assay: Test Example 4: herbicidal effect by soil treatment (Table 19, symbol P); assay type: in vivo, common chickweed (Stellaria media); details: amount of applied herbicide 320 g/ha
Summary of the method: as §1

velvetleaf [13] = assay: Test Example 5: herbicidal effect by foliage application, plastic box (Table 20, symbol M); assay type: in vivo, velvetleaf (Abutilon theophrasti); details: foliage application, 320 g/ha, evaluated 3 weeks after application
Summary of the method: (§2)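 Plants sown in sterilized diluvial soil and grown 14 days in a greenhouse at 25° C to 30° C, then sprayed on the foliage with the compound's emulsion diluted in water to a predetermined herbicide amount. Injury to weeds and crops scored three weeks after application on a visual rating scale.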

persian speedwell [14] = assay: Test Example 5: herbicidal effect by foliage application, plastic box (Table 20, symbol R); assay type: in vivo, Persian speedwell (Veronica persica); details: foliage application, 320 g/ha, evaluated 3 weeks after application
Summary of the method: as §2

barnyard grass [15] = assay: Test Example 5: herbicidal effect by foliage application, plastic box (Table 20, symbol H); assay type: in vivo, barnyard grass (Echinochloa crus-galli); details: foliage application, 320 g/ha, evaluated 3 weeks after application
Summary of the method: as §2

barnyard grass [16] = assay: Test Example 3: herbicidal effect by foliage application, Wagner pot (Table 18, symbol H); assay type: in vivo, barnyard grass (Echinochloa crus-galli); details: amount of applied herbicide 320 g/ha
Summary of the method: (§3)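 Plants were sown in alluvial soil held under 0.1–0.5 cm standing water and grown 14 days in a greenhouse at 25–30 °C. An emulsifiable formulation, water-diluted to the set dose, was then sprayed onto the foliage, and effects were scored three weeks later using previously defined criteria.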

Chinese sprangletop = assay: Test Example 3: herbicidal effect by foliage application, Wagner pot (Table 18, symbol D); assay type: in vivo, chinese sprangletop (Leptochloa chinensis); details: amount of applied herbicide 320 g/ha
Summary of the method: as §3

windgrass [17] = assay: Test Example 5: herbicidal effect by foliage application, plastic box (Table 20, symbol L); assay type: in vivo, windgrass (Apera spica-venti); details: foliage application, 320 g/ha, evaluated 3 weeks after application
Summary of the method: as §2

chickweed [18] = assay: Test Example 5: herbicidal effect by foliage application, plastic box (Table 20, symbol P); assay type: in vivo, common chickweed (Stellaria media); details: foliage application, 320 g/ha, evaluated 3 weeks after application
Summary of the method: as §2

Italian ryegrass [19] = assay: Test Example 5: herbicidal effect by foliage application, plastic box (Table 20, symbol K); assay type: in vivo, Italian ryegrass (Lolium multiflorum); details: foliage application, 320 g/ha, evaluated 3 weeks after application
Summary of the method: as §2

green foxtail [20] = assay: Test Example 5: herbicidal effect by foliage application, plastic box (Table 20, symbol G); assay type: in vivo, green foxtail (Setaria viridis); details: foliage application, 320 g/ha, evaluated 3 weeks after application
Summary of the method: as §2

blackgrass [21] = assay: Test Example 5: herbicidal effect by foliage application, plastic box (Table 20, symbol J); assay type: in vivo, blackgrass (Alopecurus myosuroides); details: foliage application, 320 g/ha, evaluated 3 weeks after application
Summary of the method: as §2

wild oat [22] = assay: Test Example 5: herbicidal effect by foliage application, plastic box (Table 20, symbol I); assay type: in vivo, wild oat (Avena fatua); details: foliage application, 320 g/ha, evaluated 3 weeks after application
Summary of the method: as §2

redroot pigweed [23] = assay: Test Example 5: herbicidal effect by foliage application, plastic box (Table 20, symbol N); assay type: in vivo, redroot pigweed (Amaranthus retroflexus); details: foliage application, 320 g/ha, evaluated 3 weeks after application
Summary of the method: as §2

southern crabgrass [24] = assay: Test Example 5: herbicidal effect by foliage application, plastic box (Table 20, symbol F); assay type: in vivo, southern crabgrass (Digitaria ciliaris); details: foliage application, 320 g/ha, evaluated 3 weeks after application
Summary of the method: as §2

lambsquarters [25] = assay: Test Example 5: herbicidal effect by foliage application, plastic box (Table 20, symbol O); assay type: in vivo, lambsquarters (Chenopodium album); details: foliage application, 320 g/ha, evaluated 3 weeks after application
Summary of the method: as §2

rice flat sedge = assay: Test Example 3: herbicidal effect by foliage application, Wagner pot (Table 18, symbol E); assay type: in vivo, rice flat sedge (Cyperus iria); details: amount of applied herbicide 320 g/ha
Summary of the method: as §3

Row | Compound | F: southern crabgrass, herbicidal effect grade (southern crabgrass [1]) | O: lambsquarters, herbicidal effect grade (lambsquarters [2]) | M: velvetleaf, herbicidal effect grade (velvetleaf [3]) | G: green foxtail, herbicidal effect grade (green foxtail [4]) | L: windgrass, herbicidal effect grade (windgrass [5]) | K: Italian ryegrass, herbicidal effect grade (Italian ryegrass [6]) | Q: false cleavers, herbicidal effect grade (false cleavers) | R: persian speedwell, herbicidal effect grade (persian speedwell [7]) | N: redroot pigweed, herbicidal effect grade (redroot pigweed [8]) | H: barnyard grass, herbicidal effect grade (barnyard grass [9]) | I: wild oat, herbicidal effect grade (wild oat [11]) | P: chickweed, herbicidal effect grade (chickweed [12]) | also measured
1 | CCCC(=O)Oc1c(C)nn(C)c(=O)c1-c1c(-c2ccc(OC)c(OC)c2)sc2cc(OC)ccc12 [3-081] | 0 (Herbicidal rate of 5% or less (almost no effect)) | 0 (Herbicidal rate of 5% or less (almost no effect)) | 0 (Herbicidal rate of 5% or less (almost no effect)) | 0 (Herbicidal rate of 5% or less (almost no effect)) | 0 (Herbicidal rate of 5% or less (almost no effect)) | 0 (Herbicidal rate of 5% or less (almost no effect)) | 0 (Herbicidal rate of 5% or less (almost no effect)) | 2 (Herbicidal rate of 20% or more and less than 40%) | 0 (Herbicidal rate of 5% or less (almost no effect)) | 0 (Herbicidal rate of 5% or less (almost no effect)) | 0 (Herbicidal rate of 5% or less (almost no effect)) | 0 (Herbicidal rate of 5% or less (almost no effect)) | J: blackgrass, herbicidal effect grade (blackgrass [10]): 0 (Herbicidal rate of 5% or less (almost no effect))
2 | Cc1ccc2oc(-c3ccc(OC(F)F)cc3)c(-c3c(O)c(C)nn(C)c3=O)c2c1 [9-053] | 2 (Herbicidal rate of 20% or more and less than 40%) | 5 (Herbicidal rate of 90% or more (almost completely withered)) | 4 (Herbicidal rate of 70% or more and less than 90%) | 4 (Herbicidal rate of 70% or more and less than 90%) | 0 (Herbicidal rate of 5% or less (almost no effect)) | 5 (Herbicidal rate of 90% or more (almost completely withered)) | 0 (Herbicidal rate of 5% or less (almost no effect)) | 4 (Herbicidal rate of 70% or more and less than 90%) | 5 (Herbicidal rate of 90% or more (almost completely withered)) | 4 (Herbicidal rate of 70% or more and less than 90%) | 0 (Herbicidal rate of 5% or less (almost no effect)) | 3 (Herbicidal rate of 40% or more and less than 70%) | M (velvetleaf) herbicidal effect grade (velvetleaf [13]): 5 (Herbicidal rate of 90% or more (almost completely withered)); R (persian speedwell) herbicidal effect grade (persian speedwell [14]): 5 (Herbicidal rate of 90% or more (almost completely withered)); H (barnyard grass) herbicidal effect grade (barnyard grass [15]): 3 (Herbicidal rate of 40% or more and less than 70%); Herbicidal effect on H (barnyard grass), foliage application (barnyard grass [16]): 4 (Herbicidal rate of 70% or more and less than 90%); Herbicidal effect on D (Chinese sprangletop), foliage application (Chinese sprangletop): 0 (Herbicidal rate of 5% or less (almost no effect)); L (windgrass) herbicidal effect grade (windgrass [17]): 3 (Herbicidal rate of 40% or more and less than 70%); P (chickweed) herbicidal effect grade (chickweed [18]): 5 (Herbicidal rate of 90% or more (almost completely withered)); K (Italian ryegrass) herbicidal effect grade (Italian ryegrass [19]): 5 (Herbicidal rate of 90% or more (almost completely withered)); G (green foxtail) herbicidal effect grade (green foxtail [20]): 4 (Herbicidal rate of 70% or more and less than 90%); J (blackgrass) herbicidal effect grade (blackgrass [21]): 4 (Herbicidal rate of 70% or more and less than 90%); I (wild oat) herbicidal effect grade (wild oat [22]): 0 (Herbicidal rate of 5% or less (almost no effect)); N (redroot pigweed) herbicidal effect grade (redroot pigweed [23]): 5 (Herbicidal rate of 90% or more (almost completely withered)); F (southern crabgrass) herbicidal effect grade (southern crabgrass [24]): 3 (Herbicidal rate of 40% or more and less than 70%); O (lambsquarters) herbicidal effect grade (lambsquarters [25]): 5 (Herbicidal rate of 90% or more (almost completely withered)); Herbicidal effect on E (rice flat sedge), foliage application (rice flat sedge): 4 (Herbicidal rate of 70% or more and less than 90%)
